Structures are written as SMILES.

For orientation: IC50 means the concentration needed to halve the response being measured.

The subject of the data set is HepG2 (hepatocellular carcinoma) cell line. The conditions noted are these: human.
As to `CC(=O)O[C@H]1C[C@H]2[C@@H]([C@H](OC(C)=O)C[C@@H]3CC(NCCCNc4ccnc5cc(Cl)ccc45)CC[C@@]32C)[C@@H]2CC[C@H]([C@H](C)CCCNCCCNc3ccnc4cc(Cl)ccc34)[C@@]12C` (mixture of isomers) [Compound 63], the “SI HepG2/D6” value was 43/32/24, the “SI HepG2/TM91C235” value is given as 43/32/24 and the “SI HepG2/W2” value is listed as 43/32/24.

As for `CC(=O)O[C@@H]1CC[C@@]2(C)[C@@H](C1)C[C@@H](OC(C)=O)[C@@H]1[C@@H]2C[C@H](OC(C)=O)[C@]2(C)[C@@H]([C@H](C)CCCNCCCNc3ccnc4cc(Cl)ccc34)CC[C@@H]12` [Compound 13], the “SI HepG2/D6” value was 104/101/67, the “SI HepG2/TM91C235” value is listed as 104/101/67 and the “SI HepG2/W2” value is given as 104/101/67.

Take `CC(=O)O[C@@H]1CC[C@@]2(C)[C@@H](C1)C[C@@H](OC(C)=O)[C@@H]1[C@@H]2C[C@H](OC(C)=O)[C@]2(C)[C@@H]([C@H](C)CCCNCCCCNc3ccnc4cc(Cl)ccc34)CC[C@@H]12` [Compound 14]: the “SI HepG2/D6” value is reported as 107/55/47, the “SI HepG2/TM91C235” value is given as 107/55/47 and the “SI HepG2/W2” value is listed as 107/55/47.

Regarding `CC(=O)O[C@@H]1CC[C@@]2(C)[C@@H](C1)C[C@@H](OC(C)=O)[C@@H]1[C@@H]2C[C@H](OC(C)=O)[C@]2(C)[C@@H]([C@H](C)CCCNCCCCCCNc3ccnc4cc(Cl)ccc34)CC[C@@H]12` [Compound 15], the “SI HepG2/D6” value was 47/29/25, the “SI HepG2/TM91C235” value was 47/29/25 and the “SI HepG2/W2” value is on record as 47/29/25.

As for `CC(=O)O[C@H]1C[C@H]2[C@@H]([C@H](OC(C)=O)C[C@@H]3C[C@H](O)CC[C@@]32C)[C@@H]2CC[C@H]([C@H](C)CCCNCCNc3ccnc4cc(Cl)ccc34)[C@@]12C` [Compound 16, N-(3α-Hydroxy-7α,12α-diacetoxy-5β-cholan-24-yl)-N′-(7′-chloroquinolin-4′-yl)ethane-1,2-diamine], the “SI HepG2/D6” value is recorded as 415/938/407, the “SI HepG2/TM91C235” value is on record as 415/938/407 and the “SI HepG2/W2” value is 415/938/407.

As for `CC(=O)O[C@H]1C[C@H]2[C@@H]([C@H](OC(C)=O)C[C@@H]3C[C@H](O)CC[C@@]32C)[C@@H]2CC[C@H]([C@H](C)CCCNCCCCNc3ccnc4cc(Cl)ccc34)[C@@]12C` [Compound 18], the “SI HepG2/D6” value is given as 47/30/28, the “SI HepG2/TM91C235” value is recorded as 47/30/28 and the “SI HepG2/W2” value is recorded as 47/30/28.

Take `CC(=O)O[C@H]1C[C@H]2[C@@H]([C@H](OC(C)=O)C[C@@H]3C[C@H](O)CC[C@@]32C)[C@@H]2CC[C@H]([C@H](C)CCCNCCCCCCNc3ccnc4cc(Cl)ccc34)[C@@]12C` [Compound 19]: the “SI HepG2/D6” value is 60/56/50, the “SI HepG2/TM91C235” value is listed as 60/56/50 and the “SI HepG2/W2” value is reported as 60/56/50.

As for `CC(=O)O[C@@H]1CC[C@@]2(C)[C@@H](C1)C[C@@H](OC(C)=O)[C@@H]1[C@@H]2C[C@H](OC(C)=O)[C@]2(C)[C@@H]([C@H](C)CCCN(C)CCNc3ccnc4cc(Cl)ccc34)CC[C@@H]12` [Compound 20, N-Methyl-N-(3α,7α,12α-triacetoxy-5β-cholan-24-yl)-N′-(7′-chloroquinolin-4′-yl)ethane-1,2-diamine], the “SI HepG2/D6” value is 98/242/79, the “SI HepG2/TM91C235” value is given as 98/242/79 and the “SI HepG2/W2” value is 98/242/79.

In the case of `CC(=O)O[C@@H]1CC[C@@]2(C)[C@@H](C1)C[C@@H](OC(C)=O)[C@@H]1[C@@H]2C[C@H](OC(C)=O)[C@]2(C)[C@@H]([C@H](C)CCCN(C)CCCNc3ccnc4cc(Cl)ccc34)CC[C@@H]12` [Compound 21], the “SI HepG2/D6” value was 134/229/71, the “SI HepG2/TM91C235” value is reported as 134/229/71 and the “SI HepG2/W2” value was 134/229/71.

`CC(=O)O[C@H]1C[C@H]2[C@@H]([C@H](OC(C)=O)C[C@@H]3CC(=O)CC[C@@]32C)[C@@H]2CC[C@H]([C@H](C)CCCNCCNc3ccnc4cc(Cl)ccc34)[C@@]12C` [Compound 22, N-(3-Oxo-7α,12α-diacetoxy-5β-cholan-24-yl)-N′-(7′-chloroquinolin-4′-yl)ethane-1,2-diamine]: the “SI HepG2/D6” value is reported as 299/571/109, the “SI HepG2/TM91C235” value is on record as 299/571/109 and the “SI HepG2/W2” value is on record as 299/571/109.

On to `CC(=O)O[C@H]1C[C@H]2[C@@H]([C@H](OC(C)=O)C[C@@H]3CC(=O)CC[C@@]32C)[C@@H]2CC[C@H]([C@H](C)CCCNCCCNc3ccnc4cc(Cl)ccc34)[C@@]12C` [Compound 23], for which the “SI HepG2/D6” value is given as 161/182/121, the “SI HepG2/TM91C235” value was 161/182/121 and the “SI HepG2/W2” value is on record as 161/182/121.

For `CC(=O)O[C@H]1C[C@H]2[C@@H]([C@H](OC(C)=O)C[C@@H]3CC(=O)CC[C@@]32C)[C@@H]2CC[C@H]([C@H](C)CCCNCCCCNc3ccnc4cc(Cl)ccc34)[C@@]12C` [Compound 24], the “SI HepG2/D6” value is reported as 7/6/6, the “SI HepG2/TM91C235” value is 7/6/6 and the “SI HepG2/W2” value is 7/6/6.

On to `CC(=O)O[C@H]1C[C@H]2[C@@H]([C@H](OC(C)=O)C[C@@H]3CC(=O)CC[C@@]32C)[C@@H]2CC[C@H]([C@H](C)CCCNCCCCCCNc3ccnc4cc(Cl)ccc34)[C@@]12C` [Compound 25], for which the “SI HepG2/D6” value is recorded as 30/27/25, the “SI HepG2/TM91C235” value is 30/27/25 and the “SI HepG2/W2” value was 30/27/25.

Consider `CC(=O)N[C@@H]1CC[C@@]2(C)[C@@H](C1)C[C@@H](OC(C)=O)[C@@H]1[C@@H]2C[C@H](OC(C)=O)[C@]2(C)[C@@H]([C@H](C)CCCNCCNc3ccnc4cc(Cl)ccc34)CC[C@@H]12` [Compound 36, 24-N-[(7-Chloroquinoline-4-yl)amino]ethylamino-3α-acetamido-7α,12α-diacetoxy-5β-cholane], for which the “SI HepG2/D6” value is given as 126/116/126, the “SI HepG2/TM91C235” value is on record as 126/116/126 and the “SI HepG2/W2” value is listed as 126/116/126.

Turning to `CC(=O)N[C@@H]1CC[C@@]2(C)[C@@H](C1)C[C@@H](OC(C)=O)[C@@H]1[C@@H]2C[C@H](OC(C)=O)[C@]2(C)[C@@H]([C@H](C)CCCNCCCNc3ccnc4cc(Cl)ccc34)CC[C@@H]12` [Compound 37], the “SI HepG2/D6” value was 55/114/51, the “SI HepG2/TM91C235” value is on record as 55/114/51 and the “SI HepG2/W2” value was 55/114/51.

In the case of `CC(=O)O[C@H]1C[C@H]2[C@@H]([C@H](OC(C)=O)C[C@@H]3C[C@H](NS(C)(=O)=O)CC[C@@]32C)[C@@H]2CC[C@H]([C@H](C)CCCNCCNc3ccnc4cc(Cl)ccc34)[C@@]12C` [Compound 38], the “SI HepG2/D6” value is on record as 131/301/222, the “SI HepG2/TM91C235” value is 131/301/222 and the “SI HepG2/W2” value is recorded as 131/301/222.

For the compound `CC(=O)O[C@H]1C[C@H]2[C@@H]([C@H](OC(C)=O)C[C@@H]3C[C@H](NS(C)(=O)=O)CC[C@@]32C)[C@@H]2CC[C@H]([C@H](C)CCCNCCCNc3ccnc4cc(Cl)ccc34)[C@@]12C` [Compound 39], the “SI HepG2/D6” value is given as 130/119/147, the “SI HepG2/TM91C235” value was 130/119/147 and the “SI HepG2/W2” value is recorded as 130/119/147.

For `CC(=O)O[C@H]1C[C@H]2[C@@H]([C@H](OC(C)=O)C[C@@H]3C[C@H](NC(=O)OC(C)(C)C)CC[C@@]32C)[C@@H]2CC[C@H]([C@H](C)CCCNCCNc3ccnc4cc(Cl)ccc34)[C@@]12C` [Compound 40, 24-N-[(7-Chloroquinoline-4-yl)amino]ethylamino-3α-N′-tert-butylcarbamate-7α,12α-diacetoxy-5β-cholane], the “SI HepG2/D6” value is 1743/531/464, the “SI HepG2/TM91C235” value is 1743/531/464 and the “SI HepG2/W2” value was 1743/531/464.

In the case of `CC(=O)O[C@H]1C[C@H]2[C@@H]([C@H](OC(C)=O)C[C@@H]3C[C@H](NS(C)(=O)=O)CC[C@@]32C)[C@@H]2CC[C@H]([C@H](C)CCCN(C)CCNc3ccnc4cc(Cl)ccc34)[C@@]12C` [Compound 42, 24-N-Methyl-N-[(7-chloroquinoline-4-yl)amino]ethylamino-3α-methanesulfonamide-7α,12α-diacetoxy-5β-cholane], the “SI HepG2/D6” value is 1194/2707/2197, the “SI HepG2/TM91C235” value was 1194/2707/2197 and the “SI HepG2/W2” value is 1194/2707/2197.

For the compound `CC(=O)O[C@H]1C[C@H]2[C@@H]([C@H](OC(C)=O)C[C@@H]3C[C@H](NC(=O)OC(C)(C)C)CC[C@@]32C)[C@@H]2CC[C@H]([C@H](C)CCCN(C)CCNc3ccnc4cc(Cl)ccc34)[C@@]12C` [Compound 44, 24-N-Methyl-N-[(7-chloroquinoline-4-yl)amino]ethylamino-3α-N′-tert-butylcarbamate-7α,12α-diacetoxy-5β-cholane], the “SI HepG2/D6” value is given as 293/264/144, the “SI HepG2/TM91C235” value was 293/264/144 and the “SI HepG2/W2” value is reported as 293/264/144.

For the compound `CC(=O)O[C@H]1C[C@H]2[C@@H]([C@H](OC(C)=O)C[C@@H]3C[C@H](N(C)C)CC[C@@]32C)[C@@H]2CC[C@H]([C@H](C)CCCNCCCNc3ccnc4cc(Cl)ccc34)[C@@]12C` [Compound 51], the “SI HepG2/D6” value is 382/137/156, the “SI HepG2/TM91C235” value is on record as 382/137/156 and the “SI HepG2/W2” value is 382/137/156.

Take `CC(=O)O[C@H]1C[C@H]2[C@@H]([C@H](OC(C)=O)C[C@@H]3C[C@H](N)CC[C@@]32C)[C@@H]2CC[C@H]([C@H](C)CCCNCCNc3ccnc4cc(Cl)ccc34)[C@@]12C` [Compound 52, 24-N-[(7-Chloroquinoline-4-yl)amino]ethylamino-3α-amino-7α,12α-diacetoxy-5β-cholane]: the IC50 worked out at 3.77 µM.

As to `CC(=O)O[C@H]1C[C@H]2[C@@H]([C@H](OC(C)=O)C[C@@H]3C[C@H](N)CC[C@@]32C)[C@@H]2CC[C@H]([C@H](C)CCCNCCCNc3ccnc4cc(Cl)ccc34)[C@@]12C` [Compound 53], the “SI HepG2/D6” value was 54/75/43, the “SI HepG2/TM91C235” value is reported as 54/75/43 and the “SI HepG2/W2” value is listed as 54/75/43.

(Values after paper PMC4032193 (Journal of Medicinal Chemistry, 2014).)
